How the values were obtained:
Aspergillus niger = test: Expected efficacy of antifungal agents; conditions: expected efficacy against Aspergillus niger
Aspergillus terreus = test: Expected efficacy of antifungal agents; conditions: expected efficacy against Aspergillus terreus
Histoplasma capsulatum = conditions: expected efficacy against Histoplasma capsulatum
Aspergillus flavus = test: Expected efficacy of antifungal agents; conditions: expected efficacy against Aspergillus flavus
[1] = test system: Paracoccidioides brasiliensis; test: Expected efficacy of antifungal agents; conditions: expected efficacy against Paracoccidioides brasiliensis
Leishmania infantum = test: Expected efficacy of antifungal agents; conditions: expected efficacy against Leishmania infantum
Aspergillus fumigatus = test: Expected efficacy of antifungal agents; conditions: expected efficacy against Aspergillus fumigatus
Coccidioides immitis = conditions: expected efficacy against Coccidioides immitis
Candida species = test: Expected efficacy of antifungal agents; conditions: expected efficacy against Candida species
Cryptococcus neoformans = test: Expected efficacy of antifungal agents; conditions: expected efficacy against Cryptococcus neoformans
Leishmania donovani = test: Expected efficacy of antifungal agents; conditions: expected efficacy against Leishmania donovani
Blastomyces dermatitidis = test: Expected efficacy of antifungal agents; conditions: expected efficacy against Blastomyces dermatitidis
Klebsiella pneumoniae = test: Expected efficacy of antibiotic agents; conditions: expected efficacy against Klebsiella pneumoniae; Gram: neg
Streptococcus agalactiae = test: Expected efficacy of antibiotic agents; conditions: expected efficacy against Streptococcus agalactiae; Gram: pos
Acinetobacter lwoffii = test: Expected efficacy of antibiotic agents; conditions: expected efficacy against Acinetobacter lwoffii; Gram: neg
Enterobacter aerogenes = test: Expected efficacy of antibiotic agents; conditions: expected efficacy against Enterobacter aerogenes; Gram: neg
Yersinia pestis = conditions: expected efficacy against Yersinia pestis; Gram: neg
Serratia marcescens = test: Expected efficacy of antibiotic agents; conditions: expected efficacy against Serratia marcescens; Gram: neg
[2] = test system: Staphylococcus epidermidis; test: Expected efficacy of antibiotic agents; conditions: expected efficacy against Staphylococcus epidermidis; Gram: pos
Enterococcus faecium = test: Expected efficacy of antibiotic agents; conditions: expected efficacy against Enterococcus faecium; Gram: pos
Citrobacter freundii = test: Expected efficacy of antibiotic agents; conditions: expected efficacy against Citrobacter freundii; Gram: neg
Chlamydia trachomatis = test: Expected efficacy of antibiotic agents; conditions: expected efficacy against Chlamydia trachomatis; Gram: n/a
Shigella dysenteriae = test: Expected efficacy of antibiotic agents; conditions: expected efficacy against Shigella dysenteriae; Gram: neg
Bordetella pertussis = test: Expected efficacy of antibiotic agents; conditions: expected efficacy against Bordetella pertussis; Gram: neg
Haemophilus influenzae = test: Expected efficacy of antibiotic agents; conditions: expected efficacy against Haemophilus influenzae; Gram: neg
Moraxella catarrhalis = test: Expected efficacy of antibiotic agents; conditions: expected efficacy against Moraxella catarrhalis; Gram: neg
Enterobacter cloacae = test: Expected efficacy of antibiotic agents; conditions: expected efficacy against Enterobacter cloacae; Gram: neg
Enterobacter sakazakii = test: Expected efficacy of antibiotic agents; conditions: expected efficacy against Enterobacter sakazakii; Gram: neg
Chlamydia psittaci = conditions: expected efficacy against Chlamydia psittaci; Gram: n/a
Vibrio cholerae = test: Expected efficacy of antibiotic agents; conditions: expected efficacy against Vibrio cholerae; Gram: neg
Pseudomonas aeruginosa = test: Expected efficacy of antibiotic agents; conditions: expected efficacy against Pseudomonas aeruginosa; Gram: neg
[3] = test system: Staphylococcus aureus (MSSA); test: Expected efficacy of antibiotic agents; conditions: expected efficacy against Staphylococcus aureus (MSSA); Gram: pos
Neisseria gonorrhoeae = test: Expected efficacy of antibiotic agents; conditions: expected efficacy against Neisseria gonorrhoeae; Gram: neg
Acinetobacter baumannii = test: Expected efficacy of antibiotic agents; conditions: expected efficacy against Acinetobacter baumannii; Gram: neg
[4] = test system: Corynebacterium urealyticum; test: Expected efficacy of antibiotic agents; conditions: expected efficacy against Corynebacterium urealyticum; Gram: pos
Peptostreptococcus = test: Expected efficacy of antibiotic agents; conditions: expected efficacy against Peptostreptococcus; Gram: pos
Escherichia coli = test: Expected efficacy of antibiotic agents; conditions: expected efficacy against Escherichia coli; Gram: neg
Mycoplasma pneumoniae = test: Expected efficacy of antibiotic agents; conditions: expected efficacy against Mycoplasma pneumoniae; Gram: n/a
Shigella sonnei = test: Expected efficacy of antibiotic agents; conditions: expected efficacy against Shigella sonnei; Gram: neg
[5] = test system: Acinetobacter calcoaceticus; test: Expected efficacy of antibiotic agents; conditions: expected efficacy against Acinetobacter calcoaceticus; Gram: neg
Clostridium difficile = test: Expected efficacy of antibiotic agents; conditions: expected efficacy against Clostridium difficile; Gram: anaer
Corynebacterium jeikeium = test: Expected efficacy of antibiotic agents; conditions: expected efficacy against Corynebacterium jeikeium; Gram: pos
[6] = test system: Klebsiella (Calymmatobacterium); test: Expected efficacy of antibiotic agents; conditions: expected efficacy against Klebsiella (Calymmatobacterium); Gram: neg
Shigella boydii = test: Expected efficacy of antibiotic agents; conditions: expected efficacy against Shigella boydii; Gram: neg
Clostridium perfringens = conditions: expected efficacy against Clostridium perfringens; Gram: anaer
Proteus mirabilis = test: Expected efficacy of antibiotic agents; conditions: expected efficacy against Proteus mirabilis; Gram: neg
Klebsiella oxytoca = test: Expected efficacy of antibiotic agents; conditions: expected efficacy against Klebsiella oxytoca; Gram: neg
Streptococcus pneumoniae = test: Expected efficacy of antibiotic agents; conditions: expected efficacy against Streptococcus pneumoniae; Gram: pos
Haemophilus ducreyi = test: Expected efficacy of antibiotic agents; conditions: expected efficacy against Haemophilus ducreyi; Gram: neg
[7] = test system: Methicillin resistant staph aureus (MRSA); test: Expected efficacy of antibiotic agents; conditions: expected efficacy against Methicillin resistant staph aureus (MRSA); Gram: pos
Enterococcus faecalis = test: Expected efficacy of antibiotic agents; conditions: expected efficacy against Enterococcus faecalis; Gram: pos
Proteus vulgaris = test: Expected efficacy of antibiotic agents; conditions: expected efficacy against Proteus vulgaris; Gram: neg
Citrobacter diversus = test: Expected efficacy of antibiotic agents; conditions: expected efficacy against Citrobacter diversus; Gram: neg
[8] = test system: Viridans group streptococci; test: Expected efficacy of antibiotic agents; conditions: expected efficacy against Viridans group streptococci; Gram: pos
Chlamydia pneumoniae = test: Expected efficacy of antibiotic agents; conditions: expected efficacy against Chlamydia pneumoniae; Gram: n/a
Legionella pneumophila = conditions: expected efficacy against Legionella pneumophila; Gram: neg
Pseudomonas fluorescens = test: Expected efficacy of antibiotic agents; conditions: expected efficacy against Pseudomonas fluorescens; Gram: neg
Neisseria meningitidis = test: Expected efficacy of antibiotic agents; conditions: expected efficacy against Neisseria meningitidis; Gram: neg
Shigella flexneri = test: Expected efficacy of antibiotic agents; conditions: expected efficacy against Shigella flexneri; Gram: neg
Bacteroides fragilis = test: Expected efficacy of antibiotic agents; conditions: expected efficacy against Bacteroides fragilis; Gram: anaer
Streptococcus pyogenes = test: Expected efficacy of antibiotic agents; conditions: expected efficacy against Streptococcus pyogenes; Gram: pos
Campylobacter jejuni = test: Expected efficacy of antibiotic agents; conditions: expected efficacy against Campylobacter jejuni; Gram: neg
Scedosporium apiospermum = test: Expected efficacy of antifungal agents; conditions: expected efficacy against Scedosporium apiospermum
Fusarium species = test: Expected efficacy of antifungal agents; conditions: expected efficacy against Fusarium species
Providencia stuartii = test: Expected efficacy of antibiotic agents; conditions: expected efficacy against Providencia stuartii; Gram: neg
[9] = test system: Haemophilus parainfluenzae; test: Expected efficacy of antibiotic agents; conditions: expected efficacy against Haemophilus parainfluenzae; Gram: neg
Brucella species = conditions: expected efficacy against Brucella species; Gram: neg
Providencia rettgeri = test: Expected efficacy of antibiotic agents; conditions: expected efficacy against Providencia rettgeri; Gram: neg
Diphtheroids = test: Expected efficacy of antibiotic agents; conditions: expected efficacy against Diphtheroids; Gram: pos

For C[C@@H]1[C@H](O)[C@@H](C)/C=C/C=C/C=C/C=C/C=C/C=C/C=C/[C@H](O[C@@H]2O[C@H](C)[C@@H](O)[C@H](N)[C@@H]2O)C[C@@H]2O[C@](O)(C[C@@H](O)C[C@@H](O)[C@H](O)CC[C@@H](O)C[C@@H](O)CC(=O)O[C@H]1C)C[C@H](O)[C@H]2C(=O)O [Amphotericin], the Efficacy (Aspergillus niger) was “yes”, the Efficacy (Aspergillus terreus) was “yes” and the Efficacy (Histoplasma capsulatum) was “yes”. The Efficacy (Aspergillus flavus) was “yes”, the Efficacy [1] was “yes” and the Efficacy (Leishmania infantum) was “yes”. The Efficacy (Aspergillus fumigatus) was “yes”, the Efficacy (Coccidioides immitis) was “yes” and the Efficacy (Candida species) was “yes”. The Efficacy (Cryptococcus neoformans) was “yes”, the Efficacy (Leishmania donovani) was “yes” and the Efficacy (Blastomyces dermatitidis) was “yes”.

In the case of OC(Cn1cncn1)(Cn1cncn1)c1ccc(F)cc1F [Fluconazole], the Efficacy (Histoplasma capsulatum) is reported as “yes”, the Efficacy (Aspergillus flavus) is reported as “yes” and the Efficacy (Aspergillus fumigatus) is reported as “yes”. For the same compound, the Efficacy (Coccidioides immitis) was “yes”, the Efficacy (Candida species) was “yes” and the Efficacy (Cryptococcus neoformans) was “yes”. For the same compound, the Efficacy (Blastomyces dermatitidis) was “yes”.

NC[C@H]1O[C@H](O[C@H]2[C@H](O)[C@@H](O[C@H]3O[C@H](CO)[C@@H](O)[C@H](N)[C@H]3O)[C@H](N)C[C@@H]2N)[C@H](N)C[C@@H]1O [Tobramycin] was tested, and the Efficacy (Klebsiella pneumoniae) was “yes”, the Efficacy (Streptococcus agalactiae) was “no” and the Efficacy (Acinetobacter lwoffii) was “no”. For the same compound, the Efficacy (Enterobacter aerogenes) was “yes”, the Efficacy (Yersinia pestis) was “yes” and the Efficacy (Serratia marcescens) was “yes”. For the same compound, the Efficacy [2] was “no”, the Efficacy (Enterococcus faecium) was “no” and the Efficacy (Citrobacter freundii) was “yes”. For the same compound, the Efficacy (Chlamydia trachomatis) was “no”, the Efficacy (Shigella dysenteriae) was “yes” and the Efficacy (Bordetella pertussis) was “no”. For the same compound, the Efficacy (Haemophilus influenzae) was “yes”, the Efficacy (Moraxella catarrhalis) was “yes” and the Efficacy (Enterobacter cloacae) was “yes”. The Efficacy (Enterobacter sakazakii) was “yes”, the Efficacy (Chlamydia psittaci) was “no” and the Efficacy (Vibrio cholerae) was “no”. For the same compound, the Efficacy (Pseudomonas aeruginosa) was “yes”, the Efficacy [3] was “no” and the Efficacy (Neisseria gonorrhoeae) was “no”. For the same compound, the Efficacy (Acinetobacter baumannii) was “no”, the Efficacy [4] was “no” and the Efficacy (Peptostreptococcus) was “no”. For the same compound, the Efficacy (Escherichia coli) was “yes”, the Efficacy (Mycoplasma pneumoniae) was “no” and the Efficacy (Shigella sonnei) was “yes”. For the same compound, the Efficacy [5] was “no”, the Efficacy (Clostridium difficile) was “no” and the Efficacy (Corynebacterium jeikeium) was “no”. The Efficacy [6] was “yes”, the Efficacy (Shigella boydii) was “yes” and the Efficacy (Clostridium perfringens) was “no”. For the same compound, the Efficacy (Proteus mirabilis) was “yes”, the Efficacy (Klebsiella oxytoca) was “yes” and the Efficacy (Streptococcus pneumoniae) was “no”. For the same compound, the Efficacy (Haemophilus ducreyi) was “yes”, the Efficacy [7] was “no” and the Efficacy (Enterococcus faecalis) was “no”. The Efficacy (Proteus vulgaris) was “yes”, the Efficacy (Citrobacter diversus) was “yes” and the Efficacy [8] was “no”. For the same compound, the Efficacy (Chlamydia pneumoniae) was “no”, the Efficacy (Legionella pneumophila) was “no” and the Efficacy (Pseudomonas fluorescens) was “yes”. For the same compound, the Efficacy (Neisseria meningitidis) was “no”, the Efficacy (Shigella flexneri) was “yes” and the Efficacy (Bacteroides fragilis) was “no”. For the same compound, the Efficacy (Streptococcus pyogenes) was “no” and the Efficacy (Campylobacter jejuni) was “yes”.

C[C@@H](c1ncncc1F)[C@](O)(Cn1cncn1)c1ccc(F)cc1F [Voriconazole] was tested, and the Efficacy (Aspergillus niger) was “yes”, the Efficacy (Aspergillus terreus) was “yes” and the Efficacy (Scedosporium apiospermum) was “yes”. The Efficacy (Aspergillus flavus) was “yes”, the Efficacy (Aspergillus fumigatus) was “yes” and the Efficacy (Candida species) was “yes”. For the same compound, the Efficacy (Fusarium species) was “yes”.

Colistimethate was tested, and the Efficacy (Klebsiella pneumoniae) was “yes”, the Efficacy (Streptococcus agalactiae) was “no” and the Efficacy (Enterobacter aerogenes) was “yes”. The Efficacy (Serratia marcescens) was “no”, the Efficacy [2] was “no” and the Efficacy (Enterococcus faecium) was “no”. For the same compound, the Efficacy (Chlamydia trachomatis) was “no”, the Efficacy (Bordetella pertussis) was “no” and the Efficacy (Moraxella catarrhalis) was “no”. The Efficacy (Providencia stuartii) was “no”, the Efficacy (Enterobacter cloacae) was “yes” and the Efficacy (Enterobacter sakazakii) was “yes”. For the same compound, the Efficacy (Chlamydia psittaci) was “no”, the Efficacy (Vibrio cholerae) was “no” and the Efficacy (Pseudomonas aeruginosa) was “yes”. The Efficacy [9] was “no”, the Efficacy [3] was “no” and the Efficacy (Neisseria gonorrhoeae) was “no”. For the same compound, the Efficacy [4] was “no”, the Efficacy (Peptostreptococcus) was “no” and the Efficacy (Brucella species) was “no”. For the same compound, the Efficacy (Escherichia coli) was “yes”, the Efficacy (Mycoplasma pneumoniae) was “no” and the Efficacy (Clostridium difficile) was “no”. For the same compound, the Efficacy (Corynebacterium jeikeium) was “no”, the Efficacy [6] was “yes” and the Efficacy (Proteus mirabilis) was “no”. For the same compound, the Efficacy (Klebsiella oxytoca) was “yes”, the Efficacy (Streptococcus pneumoniae) was “no” and the Efficacy (Providencia rettgeri) was “no”. For the same compound, the Efficacy [7] was “no”, the Efficacy (Enterococcus faecalis) was “no” and the Efficacy (Proteus vulgaris) was “no”. For the same compound, the Efficacy [8] was “no”, the Efficacy (Chlamydia pneumoniae) was “no” and the Efficacy (Legionella pneumophila) was “no”. For the same compound, the Efficacy (Pseudomonas fluorescens) was “yes”, the Efficacy (Neisseria meningitidis) was “no” and the Efficacy (Bacteroides fragilis) was “no”. For the same compound, the Efficacy (Streptococcus pyogenes) was “no” and the Efficacy (Diphtheroids) was “no”.
